# Active and inactive are the calls of the source. How the calls were made is not given here.
# Test system: Schistosoma mansoni
# Test: In vitro activity screen on S. mansoni schistosomula at 10 uM. Compound-induced effects were assessed by quantifying larva motility and phenotype using Roboworm.
# Assay type: functional, organism-based
# Parameters: test concentration 10 uM, temperature 37 degree C, time incubation 72 h
# Conditions: Puerto Rican
row,SMILES,In vitro activity
1,CCCCc1nc2ccn(Cc3ccccc3C(=O)O)c(=O)c2n1Cc1ccc(-c2ccccc2-c2nn[nH]n2)cc1,inactive
2,CC1=C(C(=O)N2CCc3ncc(C(F)(F)F)cc3C2)C2(CCN(C3CCCC3)CC2)OC1=O,inactive
3,COc1ccc(CNc2nc([C@H]3CC[C@H](C(=O)O)CC3)nc3sc4ccccc4c23)cc1Cl,inactive
4,COC(=O)c1cc(C(=O)N=C(N)N)c(C)cc1C,inactive
5,CCC(C)[S+]([O-])c1ccc(-c2nc3ccncc3[nH]2)c(OC)c1 (stereo not drawn),inactive
6,CCCc1nn(C)c2c(=O)[nH]c(-c3cc(S(=O)(=O)Oc4ccncc4)ccc3OCC)nc12,inactive
7,c1cnc(N2CCN(Cc3cncc(-c4ccsc4)c3)CC2)nc1,inactive
8,O=C(O)CN1C(=O)[C@@]2(NC(=O)N(Cc3cc(Cl)ccc3F)C2=O)c2cc(Cl)ccc21,inactive
9,Cc1csc(N2CCN(C(C)c3ccc4c(c3)OCO4)CC2)n1 (stereo not drawn),inactive
10,O=C(O)c1ccc(-c2nc(NCc3ccc4c(c3)OCO4)c3cc(Cl)sc3n2)cc1,inactive
11,COc1ccc(C(=O)N2CCCc3cc(C4=NNC(=O)SC4C)ccc32)cc1OC (stereo not drawn),inactive
12,O=C(C1CCCCC1)N1CC(=O)N2CCc3ccccc3[C@H]2C1,inactive
13,CCC(C)Oc1ccc(-c2nc(-c3cc(F)cc(CN(C)CCC(=O)O)c3)no2)cc1COC (stereo not drawn),inactive
14,COc1cc(NC(=O)c2cn(Cc3ccc(Cl)cc3)nn2)ccc1-n1cnc(C)c1,inactive
15,CCc1cc(C)c(C(=O)N=C(N)N)cc1S(C)(=O)=O,inactive
16,COCc1cc(-c2nc(-c3cccc(CN(C)CCC(=O)O)c3)no2)ccc1N1CCCCC1C (stereo not drawn),inactive
17,CCCc1cc(C)c(C(=O)N=C(N)N)cc1S(C)(=O)=O,inactive
18,CCCc1nn(C)c2c(=O)[nH]c(-c3cc(C(=O)N=C(N)N)ccc3OCC)nc12,inactive
19,CN(CCCCc1ccc(F)cc1)CCC(=O)c1ccc2[nH]c(=O)oc2c1,inactive
20,COc1cc(S(C)(=O)=O)ccc1-c1nc2ccncc2[nH]1,inactive
21,CCOc1cc(-c2nc(-c3ccc(CN(C)CC(=O)O)cc3)no2)ccc1-c1ccccc1C,inactive
22,COc1ccc(OCC(=O)O)cc1-c1cn2cc(C(=O)NCCc3c(OC)cc(Cl)cc3OC)sc2n1,inactive

row,SMILES,In vitro activity
1,O=C(O)c1cn(Cc2ccc(-n3cccn3)cc2)c2c(F)ccc(F)c2c1=O,inactive
2,COCc1cc(-c2nc(-c3ccc(CN(C)CC(=O)O)c(F)c3)no2)ccc1-c1ccccc1F,inactive
3,Cc1cc(OC(C)(C)C)c(S(C)(=O)=O)cc1C(=O)N=C(N)N,inactive
4,Cc1c(O)nc(N)nc1-c1cc2ccccc2o1,inactive
5,CC(/C=C/c1cc(/C=C/C(C)=C/C(=O)O)cc(-c2ccc(C(F)(F)F)cc2)c1)=C\C(=O)O,inactive
6,Cc1cc(C)c(S(C)(=O)=O)cc1C(=O)N=C(N)N,inactive
7,O=C(CCN1CCCCC1)c1ccc2[nH]c(=O)sc2c1,inactive
8,CCCc1nn(C)c2c(=O)[nH]c(-c3cc(S(=O)(=O)Oc4ccc(=O)n(C)n4)ccc3OCC)nc12,inactive
9,Cc1cc(-c2cccs2)c(S(C)(=O)=O)cc1C(=O)N=C(N)N,inactive
10,COc1cc(OC)c(CCNC(=O)c2cn3cc(-c4cc(OCC(N)=O)ccc4OC)nc3s2)c(OC)c1,inactive
11,CC1(C)Oc2ccc(C#N)cc2[C@@H](n2ccccc2=O)[C@@H]1O,inactive
12,CC1=C(C(=O)N2CCc3ccc(C(F)(F)F)cc3C2)C2(CCN(C3CCOCC3)CC2)OC1=O,inactive
13,CCc1cc(Oc2cccnc2)c(S(C)(=O)=O)cc1C(=O)N=C(N)N,inactive
14,CCN(CCC(=O)O)Cc1cccc(-c2noc(-c3ccc(-c4ccccc4C)c(COC)c3)n2)c1,inactive
15,O=S(=O)(Nc1ccc2nsnc2c1)c1ccccc1-c1ccccc1,inactive
16,Cc1ccc(CNc2nc(N3CCC(C(=O)O)CC3)nc3sc4c(c23)CCCC4)cc1,inactive
17,COc1ccc(C2=NN(C(=O)c3ccc(NC(=O)c4ccncc4)cc3)CCC2)cc1OC1CCCC1,inactive
18,CCOc1cc(CCNC(=O)C[C@H]2S[C@@H](c3ccc(C#Cc4ccccc4)cc3)N(c3cccc(C(N)=O)c3)C2=O)ccc1O,inactive
19,O=C(O)CCC(=O)OCC1(c2ccc(Cl)cc2)OCC(c2ccccc2)(c2ccccc2)CO1,inactive
20,CCCCCCN(Cc1ccc(C#Cc2ccc(CCCC)cc2)cc1)c1ccc(O)c(C(=O)O)c1,inactive
21,CC1=C(C(=O)N2CCc3ccc(C(F)(F)F)cc3C2)C2(CCN(C)CC2)OC1=O,inactive
22,COc1ccc(OC)c(-c2cn3cc(C(=O)NCCc4cccc(OC)c4OC)ccc3n2)c1,inactive

row,SMILES,In vitro activity
1,COc1nc(/C=C/c2nc3n(n2)CCC[C@@H]3c2ccccc2C(F)(F)F)ccc1-n1cnc(C)c1,inactive
2,CNC(=O)c1cc(Oc2ccc(NC(=O)Nc3cc(C(F)(F)F)ccc3-n3cncn3)cc2)ccn1,inactive
3,COc1ccc(OC)c(Nc2nc3ccccc3nc2NS(=O)(=O)Cc2cccnc2)c1,inactive
4,CCCCc1nc2ccn(CC(=O)N3CCCCC3)c(=O)c2n1Cc1ccc(-c2ccccc2S(=O)(=O)NC(=O)OCc2ccccc2)cc1F,inactive
5,CCN1CCC2(CC1)OC(=O)C(C)=C2C(=O)N1CCc2ccc(C(F)(F)F)cc2C1,inactive
6,CCNC1=N[C@@H]2[C@@H](O)[C@H](O)[C@@H](Cn3cc(COc4cccc(Br)c4)nn3)O[C@@H]2S1,inactive
7,CC1=C(C(=O)N2CCN(c3cccc(C(F)(F)F)c3)CC2)C2(CCN(C(C)C)CC2)OC1=O,inactive
8,Cc1cc(C(=O)C(C)SN2C(=O)c3ccccc3C2=O)ccc1O (stereo not drawn),inactive
9,Cc1c(C(=O)N=C(N)N)cc(-n2cccc2)c(C)c1C,inactive
10,CC1=C(C(=O)N2CCc3ccc(C(F)(F)F)cc3C2)C2(CCN(CC3CCOC3)CC2)OC1=O (stereo not drawn),inactive
11,CC1=C(C(=O)N2CCc3ccc(C(F)(F)F)cc3C2)C2(CCN(C3CCCC3)CC2)OC1=O,inactive
12,COCc1cc(-c2nc(-c3cccc(CN(C)CC(=O)O)c3)no2)ccc1-c1ccccc1C,inactive
13,CCCCC[C@H](O)/C=C/[C@H]1CCC(=O)N1CCc1ccc(C(=O)O)cc1,inactive
14,O=C(O)CC1CCN(c2nc(NCc3ccc4c(c3)OCO4)c3c4c(sc3n2)CCCC4)CC1,inactive
15,CC1=C(C(=O)N2CCc3ccc(C(F)(F)F)cc3C2)C2(CCN(C(C)(C)C)CC2)OC1=O,inactive
16,COCc1cc(-c2nc(-c3ccc(CN(C)CC(=O)O)cc3)no2)ccc1-c1ccccc1C,inactive
17,COc1cc(OC)c(CCNC(=O)c2cn3cc(-c4cc(OCC(O)CO)ccc4OC)nc3s2)c(OC)c1 (stereo not drawn),inactive
18,O=C(O)c1ccc(-c2nc(NCc3cccnc3)c3c(n2)sc2ccccc23)cc1,inactive
19,COc1ccc(OC)c(CCNC(=O)c2cn3cc(-c4cc(OC)ccc4OC)nc3s2)c1,inactive
20,O=C(O)c1ccc(C(=O)Nc2[nH]c3ccccc3c2C(=O)NCc2ccc3c(c2)OCO3)cc1,inactive
21,O=C(c1cc2c(s1)CC(C(=O)O)C2)c1ccccc1Cl (stereo not drawn),inactive
22,Cn1cc(-c2cnc3[nH]cc(-c4cn(Cc5cccc(F)c5F)nn4)c3c2)cn1,inactive

row,SMILES,In vitro activity
1,COc1cc(C(=O)Nc2cn(Cc3ccc(Cl)c(Cl)c3)nn2)ccc1-n1cnc(C)c1,inactive
2,Cc1cc(OC(F)(F)F)c(S(C)(=O)=O)cc1C(=O)N=C(N)N,inactive
3,CCCc1nn(C)c2c(=O)[nH]c(-c3cc(S(=O)(=O)Oc4ccccn4)ccc3OCC)nc12,inactive
4,CCOc1cc(C2=NN(C(=O)c3ccc(NC(=O)c4ccc(OC)cc4)cc3)CCC2)ccc1OC,inactive
5,CCCc1nn(C)c2c(=O)[nH]c(-c3cc(S(=O)(=O)Oc4ccc(=O)[nH]n4)ccc3OCC)nc12,inactive
6,O=C(O)c1ccc(-c2nc(NCc3ccc4c(c3)OCO4)c3c4c(oc3n2)CCCC4)cc1,inactive
7,O=C(Nc1ccc(Oc2ccncc2)cc1)Nc1cc(C(F)(F)F)ccc1-n1cncn1,inactive
8,Cc1cc(C(C)C)c(S(C)(=O)=O)cc1C(=O)N=C(N)N,inactive
9,COCc1cc(-c2nc(-c3ccc(CN(C)CCC(=O)O)c(F)c3)no2)ccc1-c1ccccc1C,inactive
10,O=C(O)c1ccc(-c2nc(NCc3ccc4c(c3)OCO4)c3c4c(sc3n2)CCCC4)cc1,inactive
11,CC1SC(=O)NN=C1c1ccc2c(c1)CCCN2 (stereo not drawn),inactive
12,CSc1cc(C)c(C(=O)N=C(N)N)cc1S(C)(=O)=O,inactive
13,COCc1cc(-c2nc(-c3ccc(CN(C)CC(=O)O)c(F)c3)no2)ccc1-c1ccccc1C,inactive
14,CCOC(=O)CC1=NN(c2ccc(C(=O)O)cc2)C(=O)/C1=C\Nc1ccccc1CC,inactive
15,Cc1cc2c(cc1C(=O)N=C(N)N)S(=O)(=O)C(C)(C)CO2,inactive
16,COc1cc(OC)cc(-c2cn3cc(C(=O)NCCc4c(OC)cc(OC)cc4OC)sc3n2)c1,inactive
17,COc1ccc(CNc2nc(-c3ccc(CC(=O)O)cc3)nc3sc4c(c23)CCCC4)cc1Cl,inactive
18,O=C(O)Cc1ccc(-c2nc(NCc3ccc4c(c3)OCO4)c3c4c(sc3n2)CCCC4)cc1,inactive
19,COc1ccc(C(=O)N2CCC(C)(C)c3cc(C4=NNC(=O)SC4C)ccc32)cc1OC (stereo not drawn),inactive
20,CC1=C(C(=O)N2CCc3c(F)cc(C(F)(F)F)cc3C2)C2(CCN(C3CCOCC3)CC2)OC1=O,inactive
21,CCC(CC)N1CCC2(CC1)OC(=O)C(C)=C2C(=O)N1CCc2ncc(C(F)(F)F)cc2C1,inactive
22,CC1=C(C(=O)N2CCc3ccc(C(F)(F)F)cc3C2)C2(CCN(C(C)C)CC2)OC1=O,inactive

# Reference: ChEMBL document CHEMBL5441142, “Probing the Merck KGaA Open Global health library for novel starting points for anti-schistosomal drug discovery” (2024)
